Measurements reported in ChEMBL document CHEMBL3232917, “Schiff's base derivatives bearing nitroimidazole and quinoline nuclei: new class of anticancer agents and potential EGFR tyrosine kinase inhibitors” (Bioorg Med Chem Lett, 2014).

Key:
[1] = system: HepG2; assay: cells; conditions: Homo sapiens, HepG2, 48 h
[2] = biological target: Epidermal growth factor receptor (Homo sapiens, UniProt P00533); assay: Inhibition of autophosphorylation of EGFR cytoplasmic domain (amino acids 645 to 1186) (unknown origin) expressed in Sf9 cells after 1 hr by time-resolved fluorometry
[3] = system: A549; assay: cells; conditions: Homo sapiens, A549, 48 h
[4] = biological target: Receptor tyrosine-protein kinase erbB-2 (Homo sapiens) (UniProt P04626); assay: Inhibition of autophosphorylation of human HER2 cytoplasmic domain (amino acids 676 to 1245) (unknown origin) expressed in Sf9 cells after 1 hr by time-resolved fluorometry
Receptor tyrosine-protein kinase erbB-2 (Homo sapiens), sequence (P04626 whole entry, looked up, the tested form may be a part): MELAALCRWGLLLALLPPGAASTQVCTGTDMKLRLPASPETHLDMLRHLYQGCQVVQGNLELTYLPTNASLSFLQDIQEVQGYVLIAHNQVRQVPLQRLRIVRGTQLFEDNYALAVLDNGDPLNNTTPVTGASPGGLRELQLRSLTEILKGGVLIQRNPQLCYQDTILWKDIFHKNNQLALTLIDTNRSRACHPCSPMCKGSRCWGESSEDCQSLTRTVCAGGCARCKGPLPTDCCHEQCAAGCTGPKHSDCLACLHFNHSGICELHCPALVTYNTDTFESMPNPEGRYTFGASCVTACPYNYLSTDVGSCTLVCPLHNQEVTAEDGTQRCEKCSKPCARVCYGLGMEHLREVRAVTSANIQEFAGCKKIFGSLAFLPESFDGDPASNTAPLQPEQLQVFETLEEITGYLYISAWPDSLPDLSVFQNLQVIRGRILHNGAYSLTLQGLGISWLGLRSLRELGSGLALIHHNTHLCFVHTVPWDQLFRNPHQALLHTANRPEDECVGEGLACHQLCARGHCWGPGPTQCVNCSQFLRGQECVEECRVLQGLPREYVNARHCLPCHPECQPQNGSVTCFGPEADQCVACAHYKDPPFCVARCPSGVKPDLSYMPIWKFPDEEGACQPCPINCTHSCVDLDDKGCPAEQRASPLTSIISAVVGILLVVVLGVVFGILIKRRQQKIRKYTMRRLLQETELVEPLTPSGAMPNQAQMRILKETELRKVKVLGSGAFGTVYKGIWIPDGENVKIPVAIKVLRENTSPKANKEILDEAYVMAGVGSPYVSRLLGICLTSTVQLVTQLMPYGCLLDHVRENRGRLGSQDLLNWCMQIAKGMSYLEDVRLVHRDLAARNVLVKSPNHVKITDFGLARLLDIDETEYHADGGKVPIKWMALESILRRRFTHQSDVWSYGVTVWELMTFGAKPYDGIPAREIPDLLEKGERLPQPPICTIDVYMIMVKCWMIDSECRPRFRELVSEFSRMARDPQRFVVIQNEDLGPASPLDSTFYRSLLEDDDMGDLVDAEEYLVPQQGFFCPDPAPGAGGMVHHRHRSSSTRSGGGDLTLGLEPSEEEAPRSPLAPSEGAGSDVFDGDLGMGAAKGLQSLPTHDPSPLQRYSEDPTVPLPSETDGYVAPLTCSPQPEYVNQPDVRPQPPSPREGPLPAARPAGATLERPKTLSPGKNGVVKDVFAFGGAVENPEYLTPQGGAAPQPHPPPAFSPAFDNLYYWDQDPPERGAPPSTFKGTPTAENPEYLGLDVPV

Epidermal growth factor receptor, sequence (P00533 whole entry, the tested form may be a part): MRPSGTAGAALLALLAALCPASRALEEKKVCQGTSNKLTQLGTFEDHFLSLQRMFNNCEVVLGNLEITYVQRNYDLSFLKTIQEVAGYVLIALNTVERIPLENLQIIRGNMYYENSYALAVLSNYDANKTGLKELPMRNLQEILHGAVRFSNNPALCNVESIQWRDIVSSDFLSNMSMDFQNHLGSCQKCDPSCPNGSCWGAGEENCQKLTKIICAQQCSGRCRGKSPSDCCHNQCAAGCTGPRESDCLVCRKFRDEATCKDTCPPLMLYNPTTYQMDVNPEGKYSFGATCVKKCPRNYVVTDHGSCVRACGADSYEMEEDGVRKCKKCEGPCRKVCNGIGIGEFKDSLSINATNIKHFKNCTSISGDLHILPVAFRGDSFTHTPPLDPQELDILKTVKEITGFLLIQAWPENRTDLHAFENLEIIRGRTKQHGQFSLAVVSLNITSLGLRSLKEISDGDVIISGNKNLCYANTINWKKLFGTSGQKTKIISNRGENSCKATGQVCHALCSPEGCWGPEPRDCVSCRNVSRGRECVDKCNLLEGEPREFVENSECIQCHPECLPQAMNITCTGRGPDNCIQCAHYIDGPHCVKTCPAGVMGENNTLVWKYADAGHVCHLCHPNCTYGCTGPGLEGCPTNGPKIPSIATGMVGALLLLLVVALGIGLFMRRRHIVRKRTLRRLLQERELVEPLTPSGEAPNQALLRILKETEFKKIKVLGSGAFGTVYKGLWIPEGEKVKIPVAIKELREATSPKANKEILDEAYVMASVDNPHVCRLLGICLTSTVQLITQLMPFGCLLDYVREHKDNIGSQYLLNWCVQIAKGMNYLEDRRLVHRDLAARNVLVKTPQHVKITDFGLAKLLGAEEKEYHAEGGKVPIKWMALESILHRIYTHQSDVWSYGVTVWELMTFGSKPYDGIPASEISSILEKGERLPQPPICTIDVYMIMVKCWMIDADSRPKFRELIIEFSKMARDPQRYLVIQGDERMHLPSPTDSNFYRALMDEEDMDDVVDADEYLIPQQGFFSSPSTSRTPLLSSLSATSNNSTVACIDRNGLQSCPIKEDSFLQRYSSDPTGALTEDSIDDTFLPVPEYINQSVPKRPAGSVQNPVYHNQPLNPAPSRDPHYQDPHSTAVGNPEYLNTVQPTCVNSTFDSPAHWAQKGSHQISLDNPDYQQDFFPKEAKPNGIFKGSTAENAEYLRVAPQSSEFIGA

Compound	IC50 [1] [µM]	IC50 [2] [µM]	IC50 [3] [µM]	IC50 [4] [µM]
Cc1ccc2nc(Oc3ccc(F)cc3)c(/C=N/NC(=O)Cn3c([N+](=O)[O-])cnc3C)cc2c1	1.56	0.42	0.19	0.43
COc1ccc(Oc2nc3ccccc3cc2/C=N/NC(=O)Cn2c([N+](=O)[O-])cnc2C)cc1	4.13	0.27	0.92	12
Cc1ncc([N+](=O)[O-])n1CC(=O)N/N=C/c1cc2ccccc2nc1Oc1ccccc1	13.3		9.45	
Cc1ccc2nc(Oc3ccccc3)c(/C=N/NC(=O)Cn3c([N+](=O)[O-])cnc3C)cc2c1	15.1	3.17	7.18	1.58
Cc1ncc([N+](=O)[O-])n1CC(=O)N/N=C/c1cc2ccccc2nc1Oc1ccc(Cl)cc1	0.22	5.12	9.03	4.1
Cc1ccc(Oc2nc3ccccc3cc2/C=N/NC(=O)Cn2c([N+](=O)[O-])cnc2C)cc1	27.1	23.1	21.5	7.67
Cc1ccc(Oc2nc3ccc(C)cc3cc2/C=N/NC(=O)Cn2c([N+](=O)[O-])cnc2C)cc1	21.9	0.18	1.19	17
Cc1ncc([N+](=O)[O-])n1CC(=O)N/N=C/c1cc2ccccc2nc1Oc1ccc(F)cc1	0.18	21	3.12	0.37
Cc1ccc2nc(Oc3ccc(Cl)cc3)c(/C=N/NC(=O)Cn3c([N+](=O)[O-])cnc3C)cc2c1	3.18	8.66	1.23	19
COc1ccc(Oc2nc3ccc(C)cc3cc2/C=N/NC(=O)Cn2c([N+](=O)[O-])cnc2C)cc1	3.15	0.12	0.16	2.18
